Results reported in PubChem BioAssay AID256 (DTP/NCI, 2004).
Several values for one entry are separate records, joined by “and”; a condition that tells them apart may be missing. Identical values can stand only once. Toxic doses and inconclusive results are not listed.

Test system: CD2F1 mice, L1210 leukemia ip, survival T/C
Experiment: NCI In Vivo Anticancer Drug Screen. Data for tumor model L1210 Leukemia (intraperitoneal) in CD2F1 (CDF1) mice
Conditions: higher = longer survival
Method in brief: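 Vehicle-treated tumor-bearing mice served as controls (C) for compound-treated mice (T). Reported figure is T divided by C.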

[1] = endpoint: mean survival time, dose: 100.0 mg/kg/injection, schedule: Q04DX003 (ip), vehicle: saline with Tween-80
[2] = endpoint: mean survival time, dose: 200.0 mg/kg/injection, schedule: Q04DX003 (ip), vehicle: saline with Tween-80
[3] = endpoint: mean survival time, dose: 400.0 mg/kg/injection, schedule: Q04DX003 (ip), vehicle: saline with Tween-80
[4] = endpoint: mean survival time, dose: 100.0 mg/kg/injection, schedule: Q04DX002 (ip), vehicle: saline with Tween-80
[5] = endpoint: mean survival time, dose: 200.0 mg/kg/injection, schedule: Q04DX002 (ip), vehicle: saline with Tween-80
[6] = endpoint: mean survival time, dose: 100.0 mg/kg/injection, schedule: Q01DX009 (ip), vehicle: saline
[7] = endpoint: mean survival time, dose: 200.0 mg/kg/injection, schedule: Q01DX009 (ip), vehicle: saline
[8] = endpoint: mean survival time, dose: 50.0 mg/kg/injection, schedule: Q01DX009 (ip), vehicle: saline with Tween-80
[9] = endpoint: mean survival time, dose: 100.0 mg/kg/injection, schedule: Q01DX009 (ip), vehicle: saline with Tween-80
[10] = endpoint: mean survival time, dose: 100.0 mg/kg/injection, schedule: Q04DX003 (ip), vehicle: saline
[11] = endpoint: mean survival time, dose: 200.0 mg/kg/injection, schedule: Q04DX003 (ip), vehicle: saline
[12] = endpoint: mean survival time, dose: 200.0 mg/kg/injection, schedule: Q01DX009 (ip), vehicle: saline with Tween-80
[13] = endpoint: mean survival time, dose: 400.0 mg/kg/injection, schedule: Q01DX009 (ip), vehicle: saline with Tween-80

Cc1ccc(S(=O)(=O)NC(CSCc2ccccc2)C(=O)O)cc1 (configuration not stated) was tested, and the T/C [1] was 94 % of control, the T/C [2] was 93 % of control and the T/C [3] was 95 % of control.
With CCOc1ccccc1/C=C1\N=C(c2ccc([N+](=O)[O-])cc2)OC1=O the T/C [4] was 95 % of control, the T/C [5] was 91 % of control and the T/C (endpoint: mean survival time, dose: 400.0 mg/kg/injection, schedule: Q04DX002 (ip), vehicle: saline with Tween-80) was 100 % of control.
For COCCN=C(N)C(N)=NCCOC, the T/C [6] was 105 % of control, the T/C [7] was 103 % of control and the T/C (endpoint: mean survival time, dose: 400.0 mg/kg/injection, schedule: Q01DX009 (ip), vehicle: saline) was 102 % of control.
For c1ccc2c(c1)Cc1cc3ccccc3nc1-2, the T/C (endpoint: mean survival time, dose: 75.0 mg/kg/injection, schedule: Q01DX001 (ip), vehicle: saline) was 102 % of control, the T/C (endpoint: mean survival time, dose: 150.0 mg/kg/injection, schedule: Q01DX001 (ip), vehicle: saline) was 97 % of control and the T/C (endpoint: mean survival time, dose: 300.0 mg/kg/injection, schedule: Q01DX001 (ip), vehicle: saline) was 101 % of control.
CC1=CC=CC(C)(C(Cl)Cl)C1=O (configuration not stated) was tested, and the T/C [8] was 97 % of control, the T/C [9] was 89 % of control and the T/C [1] was 96 % of control. For the same compound, the T/C [2] was 103 % of control and the T/C (endpoint: mean survival time, dose: 1200.0 mg/kg/injection, schedule: Q01DX009 (ip), vehicle: saline with Tween-80) was 93 % of control.
With OC1(c2ccccc2)CN(Cc2ccccc2)CCO1 (configuration not stated) the T/C (endpoint: mean survival time, dose: 50.0 mg/kg/injection, schedule: Q01DX009 (ip), vehicle: saline) was 104 % of control, the T/C (endpoint: mean survival time, dose: 50.0 mg/kg/injection, schedule: Q04DX003 (ip), vehicle: saline) was 93 % of control and the T/C [6] was 102 % of control. The T/C [10] was 101 % of control, the T/C [7] was 98 % of control and the T/C [11] was 102 % of control.
CC1(C)N=C(N)N=C(N)N1c1cccc(OCCOc2cccc(N)c2)c1 was tested, and the T/C (endpoint: mean survival time, dose: 25.0 mg/kg/injection, schedule: Q01DX001 (ip), vehicle: Klucel (hydroxypropylcellulose) (HPC)) was 97 % of control and the T/C (endpoint: mean survival time, dose: 50.0 mg/kg/injection, schedule: Q01DX001 (ip), vehicle: Klucel (hydroxypropylcellulose) (HPC)) was 97 % of control.
CCOC(=O)C1CC=CCC1C(=O)OCC (configuration not stated) was tested, and the T/C (endpoint: mean survival time, dose: 35.0 mg/kg/injection, schedule: Q04DX003 (ip), vehicle: other) was 111 % of control, the T/C (endpoint: mean survival time, dose: 65.0 mg/kg/injection, schedule: Q04DX003 (ip), vehicle: other) was 94 % of control and the T/C (endpoint: mean survival time, dose: 100.0 mg/kg/injection, schedule: Q04DX003 (ip), vehicle: other) was 103 % of control. For the same compound, the T/C (endpoint: mean survival time, dose: 150.0 mg/kg/injection, schedule: Q04DX003 (ip), vehicle: other) was 100 % of control.
With Cc1ccc(S(=O)(=O)Oc2ccc(Cl)cc2)cc1 the T/C [9] was 101 % of control, the T/C [12] was 98 % of control and the T/C [13] was 98 % of control.
C=C1CC[C@]2(C)CC[C@]3(C)C4=CC=C5C(=CC(=O)C(O)=C5C)[C@]4(C)CC[C@@]3(C)[C@@H]2C1 was tested, and the T/C (endpoint: mean survival time, dose: 0.12 mg/kg/injection, schedule: Q01DX009 (ip), vehicle: saline with Tween-80) was 103 % of control, the T/C (endpoint: mean survival time, dose: 0.25 mg/kg/injection, schedule: Q01DX009 (ip), vehicle: saline with Tween-80) was 102 % of control and the T/C (endpoint: mean survival time, dose: 0.5 mg/kg/injection, schedule: Q01DX009 (ip), vehicle: saline with Tween-80) was 108 % of control. The T/C (endpoint: mean survival time, dose: 1.0 mg/kg/injection, schedule: Q01DX009 (ip), vehicle: saline with Tween-80) was 86 % of control.
In the case of CC1C=COC(C)CO1 (configuration not stated) (tested in a mixture with another compound), the T/C [1] is reported as 103 % of control, the T/C [2] is reported as 97 % of control and the T/C [3] is reported as 95 % of control.
With N#CC1=C(C#N)C(=O)c2ccccc2C1=O the T/C (endpoint: mean survival time, dose: 25.0 mg/kg/injection, schedule: Q01DX009 (ip), vehicle: saline with Tween-80) was 98 % of control, the T/C [8] was 97 % of control and the T/C [9] was 88 % of control.
For CN1C(C(=O)O)CCC1C(=O)O (configuration not stated), the T/C [10] was 96 % of control and the T/C [11] was 98 % of control.
O=C(COc1ccc(F)cc1)OCCOC(=O)COc1ccc(F)cc1 was tested, and the T/C [4] was 100 % of control and the T/C [5] was 95 % of control.
In the case of COc1cc2c(c3c1c(=O)c1cccc(F)c1n3C)C=CC(C)(C)O2, the T/C (endpoint: median survival time, dose: 50.0 mg/kg/injection, schedule: Q01DX009 (ip), vehicle: Klucel (hydroxypropylcellulose) (HPC)) is reported as 118 % of control, the T/C (endpoint: median survival time, dose: 100.0 mg/kg/injection, schedule: Q01DX009 (ip), vehicle: Klucel (hydroxypropylcellulose) (HPC)) is reported as 117 % of control and the T/C (endpoint: median survival time, dose: 200.0 mg/kg/injection, schedule: Q01DX009 (ip), vehicle: Klucel (hydroxypropylcellulose) (HPC)) is reported as 120 % of control and 90 % of control.
With CCCCC(O)(c1ccccc1)C1CN(C(C)(C)C)C1c1ccccc1 (configuration not stated) the T/C (endpoint: mean survival time, dose: 25.0 mg/kg/injection, schedule: Q01DX001 (ip), vehicle: saline with Tween-80) was 95 % of control, the T/C (endpoint: mean survival time, dose: 50.0 mg/kg/injection, schedule: Q01DX001 (ip), vehicle: saline with Tween-80) was 91 % of control and the T/C (endpoint: mean survival time, dose: 100.0 mg/kg/injection, schedule: Q01DX001 (ip), vehicle: saline with Tween-80) was 86 % of control.
C=C1C(=O)OC2C1CCC(C)C1(O)C=CC(=O)C21C (configuration not stated) was tested, and the T/C (endpoint: mean survival time, dose: 50.0 mg/kg/injection, schedule: Q01DX001 (ip), vehicle: saline) was 107 % of control and the T/C (endpoint: mean survival time, dose: 100.0 mg/kg/injection, schedule: Q01DX001 (ip), vehicle: saline) was 97 % of control.
With CCOC(=O)/C(C#N)=C\c1cccs1 the T/C (endpoint: mean survival time, dose: 25.0 mg/kg/injection, schedule: Q04DX003 (ip), vehicle: Klucel (hydroxypropylcellulose) (HPC)) was 96 % of control, the T/C (endpoint: mean survival time, dose: 50.0 mg/kg/injection, schedule: Q04DX003 (ip), vehicle: Klucel (hydroxypropylcellulose) (HPC)) was 96 % of control and the T/C (endpoint: mean survival time, dose: 100.0 mg/kg/injection, schedule: Q04DX003 (ip), vehicle: Klucel (hydroxypropylcellulose) (HPC)) was 107 % of control.
For Cc1ccc(C2=CSc3ccccc3N2)c(C)c1, the T/C (endpoint: mean survival time, dose: 100.0 mg/kg/injection, schedule: Q04DX002 (ip), vehicle: other) was 96 % of control, the T/C (endpoint: mean survival time, dose: 200.0 mg/kg/injection, schedule: Q04DX002 (ip), vehicle: other) was 100 % of control and the T/C (endpoint: mean survival time, dose: 400.0 mg/kg/injection, schedule: Q04DX002 (ip), vehicle: other) was 100 % of control.
With CC[C@@]1(OC(=O)C(N)CCC(=O)O)C(=O)OCc2c1cc1n(c2=O)Cc2cc3ccccc3nc2-1 (some centres not stated) the T/C (endpoint: median survival time, dose: 6.85 mg/kg/injection, schedule: Q04DX002 (ip), vehicle: water) was 107 % of control and 108 % of control, the T/C (endpoint: median survival time, dose: 10.27 mg/kg/injection, schedule: Q04HX004 (iv), vehicle: water) was 120 % of control and 111 % of control and the T/C (endpoint: median survival time, dose: 13.69 mg/kg/injection, schedule: Q04DX002 (ip), vehicle: water) was 113 % of control. The T/C (endpoint: median survival time, dose: 27.39 mg/kg/injection, schedule: Q04DX002 (ip), vehicle: water) was 122 % of control, the T/C (endpoint: median survival time, dose: 41.08 mg/kg/injection, schedule: Q04HX004 (iv), vehicle: water) was 184 % of control and 197 % of control and the T/C (endpoint: median survival time, dose: 54.78 mg/kg/injection, schedule: Q04DX002 (ip), vehicle: water) was 154 % of control and 170 % of control. For the same compound, the T/C (endpoint: median survival time, dose: 54.78 mg/kg/injection, schedule: Q04HX004 (iv), vehicle: water) was 204 % of control and 211 % of control and the T/C (endpoint: median survival time, dose: 109.6 mg/kg/injection, schedule: Q04DX002 (ip), vehicle: water) was 208 % of control.
CCOC(=O)C(=CNc1ccc(OC)cc1[N+](=O)[O-])C(=O)OCC was tested, and the T/C (endpoint: mean survival time, dose: 100.0 mg/kg/injection, schedule: Q01DX005 (ip), vehicle: saline with Tween-80) was 103 % of control, the T/C [9] was 93 % of control and the T/C (endpoint: mean survival time, dose: 200.0 mg/kg/injection, schedule: Q01DX005 (ip), vehicle: saline with Tween-80) was 97 % of control. For the same compound, the T/C [12] was 89 % of control, the T/C (endpoint: mean survival time, dose: 400.0 mg/kg/injection, schedule: Q01DX005 (ip), vehicle: saline with Tween-80) was 91 % of control and the T/C [13] was 89 % of control.
With Nc1nc(N)c2nc(CN(CCc3ccccc3)c3ccc(C(=O)NC(CCC(=O)O)C(=O)O)cc3)cnc2n1 (configuration not stated) the T/C (endpoint: mean survival time, dose: 20.0 mg/kg/injection, schedule: Q01DX009 (ip), vehicle: sodium bicarbonate) was 100 % of control, the T/C (endpoint: mean survival time, dose: 40.0 mg/kg/injection, schedule: Q01DX009 (ip), vehicle: sodium bicarbonate) was 105 % of control and the T/C (endpoint: mean survival time, dose: 80.0 mg/kg/injection, schedule: Q01DX009 (ip), vehicle: sodium bicarbonate) was 108 % of control. For the same compound, the T/C (endpoint: mean survival time, dose: 100.0 mg/kg/injection, schedule: Q01DX001 (ip), vehicle: sodium bicarbonate) was 96 % of control, the T/C (endpoint: mean survival time, dose: 200.0 mg/kg/injection, schedule: Q01DX001 (ip), vehicle: sodium bicarbonate) was 98 % of control and the T/C (endpoint: mean survival time, dose: 400.0 mg/kg/injection, schedule: Q01DX001 (ip), vehicle: sodium bicarbonate) was 102 % of control.
OCC(O)COCC#Cc1ccccc1 (configuration not stated) was tested, and the T/C (endpoint: mean survival time, dose: 25.0 mg/kg/injection, schedule: Q01DX009 (ip), vehicle: water) was 97 % of control, the T/C (endpoint: mean survival time, dose: 50.0 mg/kg/injection, schedule: Q01DX009 (ip), vehicle: water) was 92 % of control and the T/C (endpoint: mean survival time, dose: 100.0 mg/kg/injection, schedule: Q01DX009 (ip), vehicle: water) was 101 % of control. For the same compound, the T/C (endpoint: mean survival time, dose: 200.0 mg/kg/injection, schedule: Q01DX009 (ip), vehicle: water) was 101 % of control.
With CCOC(=O)CC/C(C)=N\N(C)C the T/C [9] was 103 % of control, the T/C [12] was 97 % of control and the T/C [13] was 96 % of control.
